Experimental data taken from US11464786B2, “CXCR7 inhibitors for the treatment of cancer” (CHEMOCENTRYX, INC., priority 2018, dated 2022).

How the values were obtained:
[1] = tested on: Frs2β (+/+) mice; experiment: DHMEQ treatment in vivo: RelA localization and cytokine transcripts in precancerous mammary tissues; parameters: species or system mouse; conditions: 10 μg/g intraperitoneally once a day for 3 weeks
Source text: (§1) FIG. 5A-K FRS2β-dependent increase in activation of AKT-NFκB increases the production of IGF1 and CXCL12, promoting tumorigenesis. (A) Schematic of DHMEQ treatment of cultured Frs2β (+/+) precancerous mammary epithelial cells in vitro. (B) Expression levels of Igf1, Cxcl12, and IκBα in Frs2β (+/+) precancerous mammary epithelial cells treated with the indicated concentration of DHMEQ were compared by qPCR. Results are shown as means±SEM. n=4. **p<0.01. (C) Immunoblotting analysis of the indicated proteins in the lysate of Frs2β (+/+) or Frs2β (−/−) precancerous mammary tissues. Actin was used as a loading control. (D) Immunoblotting analysis of cytoplasmic and nuclear expression levels of the indicated proteins (control as a nuclear protein) in the lysate of Frs2β (+/+) or Frs2β (−/−) mammary tissues. PARP1 was used as a representative protein in nucleus. Actin was used as a loading control. (E) Immunoblotting analysis of the indicated proteins in the lysate of Frs2β (+/+) or Frs2β (−/−) mammary tissues. Actin was used as a loading control. (F) Schematic of DHMEQ treatment of Frs2β (+/+) mice in vivo. The mice were intraperitoneally injected with 10 μg/g DHMEQ once a day for 3 weeks. (G) Immunohistochemical staining for Frs2β (+/+) mammary tissues with or without 3-week treatment with 10 μg/g DHMEQ, or Frs2β (−/−) mammary tissues, using antibodies against RelA. Scale bar: 50 ∝μ. (H) Expression levels of Igf1 and Cxcl12 in Frs2β (+/+) mammary tissues, with or without 3-week treatment with 10 μg/g DHMEQ. N.T., not treated. Results are shown as means±SEM. n=4. ***p<0.001 and **p<0.01 (I) Treatment of mice with a CXCR7 inhibitor and/or an IGF1 antibody reduces tumor volume. Frs2β (+/+) tumor sphere cells were inoculated into mammary fat pads of 8-week-old virgin female MMTV-neu (+)/Frs2β (+/+) mice. After 7 days, the mice were intraperitoneally injected with 0.1 μg/g IGF1 antibody (R&D Biosystems) once per week and/or 1 μg/g of AMD3100 (Sigma) one a day and 1.5 μg/g of Compound 1 once a day. […] Tumor volumes (J) and weights (K) were measured in mice treated as in (I). […]

[2] = tested on: Frs2β (+/+) precancerous mammary epithelial cells; experiment: qPCR of NFkB target gene expression in cultured precancerous mammary epithelial cells; assay type: cell-based, mouse; conditions: in vitro, dose-dependent
Source text: as §1

[3] = tested on: Frs2β (+/+) CAFs; experiment: Migration (mobilization) of CAFs in co-culture; assay type: cell-based, mouse; conditions: single inhibitor alone, 100 μg/ml; data not shown
Description: FIG. 4A-I CXCL12 produced from precancerous Frs2β (+/+) mammary cells induce tumor spheres and migration of CAFs. (A) Schematic of co-culture of Frs2β (+/+) tumor cells to form spheres in the lower chamber with Frs2β (+/+) precancerous mammary epithelial cells in the upper chamber. (B) Representative images of tumor sphere formation in the presence of Frs2β (+/+) mammary epithelial cells treated with control IgG (400 nM) or IGF1 neutralizing antibody (Nab) (400 nM). N.T., not treated (without co-culture with mammary epithelial cells). Scale bar: 100 ∝μ. (C) Quantification of tumor sphere-forming efficiency. Results are shown as means±SEM. n=4. ***p<0.001, **p<0.01. (D) Schematic of co-culture of Frs2β (+/+) or Frs2β (−/−) mammary cells in the lower chamber with Frs2β (+/+) or Frs2β (−/−) CAFs in the upper chamber. (E) Expression levels of Cxcl12 was compared between Frs2β (+/+) or Frs2β (−/−) mammary cells on the […] by qPCR. Results were shown as mean±SEM. n=6. * * *p<0.001. (F) Representative images of migrated Frs2β (+/+) CAFs co-cultured with Frs2β (+/+) or Frs2β (−/−) mammary cells in the […] for 24 hours. (G) Quantification of migrated Frs2β (+/+) CAFs. Results were shown as mean±SEM. n=4. **p<0.01. […] (I) Quantification of the migrated CAFs co-cultured with Frs2β (+/+) cancer cells for 24 hr. […]

Row | Compound | expression of Cxcl12 transcripts in precancerous mammary tissues [1] | expression of Igf1 transcripts in precancerous mammary tissues [1] | number of Frs2β (+/+) precancerous luminal cells harboring RelA in the nucleus ([1]; immunohistochemistry) | expression of Cxcl12 [2] | expression of Igf1 [2] | expression of IkBa [2] | mobilization of CAFs [3]
1 | O=C(NC1=CC(=O)[C@H]2O[C@H]2[C@H]1O)c1ccccc1O [DHMEQ] | inhibited | inhibited | dramatically decreased | inhibited | inhibited | inhibited | –
2 | CC(C)c1cc(N2CCCN(Cc3csc(-c4ccccc4)n3)CC2)c2ncccc2c1 [Compound 1] | – | – | – | – | – | – | did not observe significant effects
3 | c1cc(CN2CCCNCCNCCCNCC2)ccc1CN1CCCNCCNCCCNCC1 [AMD3100] | – | – | – | – | – | – | did not observe significant effects
